Results published in patent US20260000655A1, “PHARMACEUTICAL COMPOSITION FOR USE IN PREVENTION OR TREATMENT OF LIFESTYLE-RELATED DISEASE” (priority 2022, published 2026).

Legend:
[1] = tested on: liver cell model HepG2 cells; experiment: Cytotoxicity (MTT reagent); type: cell-based, human; settings: HPH-15 1 μM, 10 μM or 50 μM, 24 hours
Description: It was examined whether using HPH-15 as a drug caused any cytotoxicity.
The myotube cell model L6-GLUT4myc, the liver cell model HepG2 cells, and the adipocyte model 3T3-L1 used in Example 1 were each seeded onto a 24-well plate (1×10^5 cells/well, […] of culture liquid) and cultured overnight. Then, a DMSO solution (1%) containing HPH-15 (final concentration: 1 μM, 10 μM or 50 μM) was added to the medium, and the cells were further cultured for 24 hours. As a control, only DMSO solution (1%) was added, and the cells were cultured for 24 hours in the same manner. Next, […] of MTT reagent (3-(4,5-dimethyl-2-thiazolyl)-2,5-diphenyl-2H-tetrazolium bromide: 1.1 mg/mL: Dojindo Laboratories) was added to each well, and the cells were further cultured for 4 hours. After collecting the precipitated crystals, the supernatant was removed and DMSO ([…]) was added to completely dissolve the crystals. Cytotoxicity was evaluated by measuring the absorbance (550 nm) of the solution and determining the number of viable cells.

[2] = tested on: adenosine monophosphate-activated protein kinase (AMPK); experiment: Activation of AMPK (p-AMPK/AMPK, Western blotting) in myotube cell model L6-GLUT4myc; type: cell-based, rat; settings: HPH-15 at 1/200th the concentration of metformin (2 mM), 24 hours
Description: (§1) The tissues involved in glucose uptake and glucose metabolism are mainly the muscle, the liver, and the fat. Thus, using a cell model of each tissue, the relationship between HPH-15 and activation of adenosine monophosphate-activated protein kinase (AMPK) was examined. Note that AMPK is known as a therapeutic target for diabetes. AMPK acts as an energy sensor, and when it detects a decrease in ATP serving as an intracellular energy source, it suppresses the synthesis of glucose, fats, and proteins and produces ATP. Exercise therapy for diabetes is based on this mechanism. Further, AMPK has been drawing attention as a factor that improves insulin resistance.
(§2) As a muscle cell model to be used, rat myoblast cell line L6-GLUT4myc (myoblasts expressing myc-tagged GLUT4) was cultured in a minimal essential medium a-MEM (10% FBS) and differentiated into myotubes. Differentiation into myotubes was performed by culturing L6-GLUT4 cells in a-MEM (10% FBS) and then changing the medium to a-MEM (2% FBS), followed by culturing for 6 days. Human HepG2 cell line was used as a liver cell model. As an adipocyte model to be used, mouse 3T3-L1 preadipocyte cell line was differentiated into adipocytes. Differentiation into adipocytes was performed as follows. […]
(§3) Next, bands of AMPK and p-AMPK were quantified using ImageJ to determine a ratio of activated AMPK relative to AMPK (p-AMPK/AMPK).

[3] = tested on: high-fat diet-induced obesity model mice; experiment: H&E staining of mouse tissue; type: in vivo
Description: High-fat diet-induced obesity model mice were prepared in the same manner as in Example 7. Note that the high-fat diet-induced obesity model mice develop liver damage and are thus used as a liver disease model. Then, HPH-15 (10 mg/kg or 100 mg/kg, […]) dissolved in olive oil or metformin (300 mg/kg, […]) was orally administered once a day for 28 days. Olive oil alone was administered as a control. After administration of each for 28 days, the liver, epididymis, and muscle of the high-fat diet-induced obesity model mice were stained with H&E and observed using a microscope. The results of H&E staining of the liver are shown in FIG. 12A, the results of H&E staining of the epididymis are shown in FIG. 12B, and the results of H&E staining of the muscle are shown in FIG. 12C.

[4] = tested on: adenosine monophosphate-activated protein kinase (AMPK); experiment: Activation of AMPK (p-AMPK/AMPK, Western blotting) in liver cell model HepG2; type: cell-based, human; settings: HPH-15 at 1/40th the concentration of metformin (2 mM), 24 hours
Description: as §1, §2, §3

[5] = HPH-15 10 or 100 mg/kg orally 28 days

Question: How did the “cytotoxicity (number of viable cells)” value [1] turn out when `CC(C)(C)SCCNC(=S)c1cccc(C(=S)NCCSC(C)(C)C)n1` [HPH-15] was run?
Answer: no cytotoxicity was confirmed

Question: And the “AMPK activation (p-AMPK/AMPK) compared to when metformin was used” value [2]?
Answer: approximately 75%

Question: And the “visible fat in liver tissue and epididymal adipose tissue (H&E)” value ([3]; HPH-15 100 mg/kg orally 28 days)?
Answer: almost no fat was visible

Question: And the “cell area ratio in the epididymal adipose tissue (size of adipocytes, H&E)” value [3, 5]?
Answer: reducing the cell area ratio

Question: What about the “macrophage infiltration in epididymal adipose tissue (H&E)” value [3, 5] of the same compound?
Answer: does not cause macrophage infiltration

Question: And the “percentage of fat in the liver tissue (H&E)” value ([3]; HPH-15 10 or 100 mg/kg orally 28 days, compared to the control and metformin 300 mg/kg)?
Answer: significantly reducing the percentage of fat in the liver tissue

Question: And the “tissue changes or toxicity in the muscle (H&E)” value ([3]; orally once a day 28 days, FIG. 12C)?
Answer: no tissue changes or toxicity was observed

Question: And the “AMPK activation (p-AMPK/AMPK) compared to when metformin was used” value [4]?
Answer: approximately 40%
